Values of other authors in US20250345482A1, “3D PRINTED GALLIUM SCAFFOLD” (Northeast Ohio Medical University, priority 2024, published 2025).

How the values were obtained:
[1] = system: osteoclast differentiation and function; settings: inventors' earlier publication (Ghanta P. et al. 2023)
NFAT2, TRAP, and c-Fos = settings: literature (Verron E et al. 2012)

Row | Compound | Osteoclast differentiation and function [1] | Effect on transcription factors responsible for osteoclast differentiation (NFAT2, TRAP, and c-Fos)
1 | CC(=O)/C=C(/C)[O][Ga]([O]/C(C)=C\C(C)=O)[O]/C(C)=C\C(C)=O [GaAcAc, gallium acetylacetonate] | effectively inhibited | 
2 | O=[N+]([O-])[O-].O=[N+]([O-])[O-].O=[N+]([O-])[O-].[Ga+3] [gallium nitrate] |  | dose-dependent downregulation
